Measured values reported in US20210238225A1, “PEPTIDOMIMETIC INHIBITORS OF THE PEPTIDYL-PROLYL CIS/TRANS ISOMERASE (PIN1)” (DANA-FARBER CANCER INSTITUTE, INC., priority 2018, published 2021).
Where two headings read alike, the source gives them in different places. Non-standard residues stand in square brackets, D forms with d. Residues, ends and D or L forms follow the SMILES beside them. *: point of attachment. Ala(9-anthryl) = N[C@@H](Cc1c2ccccc2cc2ccccc12)C(=O)O; Phe(4-tBu) = CC(C)(C)c1ccc(C[C@H](N)C(=O)O)cc1; Bip = N[C@@H](Cc1ccc(-c2ccccc2)cc1)C(=O)O; Dip = N[C@H](C(=O)O)C(c1ccccc1)c1ccccc1; Morpholine(3S-CO) = O=C(O)[C@@H]1COCCN1; 2Nal = N[C@@H](Cc1ccc2ccccc2c1)C(=O)O; X2 = C[C@H]1NC(=O)N[C@H]1CCCCCC(=O)*; Bta = N[C@@H](Cc1csc2ccccc12)C(=O)O; β3hF = N[C@H](CC(=O)O)Cc1ccccc1; Cit = NC(=O)NCCC[C@H](N)C(=O)O; Pip = O=C(O)[C@@H]1CCCCN1; Acryloyl = C=CC(=O)*; ClAc = O=C(CCl)*; X1 = O=C(C1CO1)*

Molecular target: Pin1 (GST-Pin1) (Homo sapiens, UniProt Q13526)
Test: Fluorescence polarization (FP) assay, binding to Pin1
Conditions: competition with fluorescein-labeled peptide probe, 12 hours pre-incubation at 4° C., Kenakin Ki equation

Pin1 (GST-Pin1), sequence (Q13526 whole entry): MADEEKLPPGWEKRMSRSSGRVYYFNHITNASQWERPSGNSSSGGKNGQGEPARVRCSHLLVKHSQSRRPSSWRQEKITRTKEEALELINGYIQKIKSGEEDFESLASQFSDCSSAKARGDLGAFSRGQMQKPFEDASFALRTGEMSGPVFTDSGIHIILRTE

SMILES	Ki (read-out: Ki, μM (FP Assay))	Ki (Ki, μM (FP Assay))
C=CC(=O)N[C@H](CC(=O)O)C(=O)N1CCCC[C@H]1C(=O)N[C@@H](Cc1ccc2ccccc2c1)C(=O)N[C@@H](CCC(N)=O)C(N)=O [Compound 2-34, (R)-3-Acrylamido-4-((S)-2-(((S)-1-(((S)-1,5-diamino-1,5-dioxopentan-2-yl)amino)-3-(naphthalen-2-yl)-1-oxopropan-2-yl)carbamoyl)piperidin-1-yl)-4-oxobutanoic acid] (Acryloyl-[dD][Pip][2Nal]Q-NH2)	> 10 µM	–
C=CC(=O)N[C@@H](CC(=O)O)C(=O)N1CCCC[C@H]1C(=O)N[C@@H](Cc1ccc2ccccc2c1)C(=O)N[C@@H](CCC(N)=O)C(N)=O [Compound 2-35, (S)-3-Acrylamido-4-((S)-2-(((S)-1-(((S)-1,5-diamino-1,5-dioxopentan-2-yl)amino)-3-(naphthalen-2-yl)-1-oxopropan-2-yl)carbamoyl)piperidin-1-yl)-4-oxobutanoic acid] (Acryloyl-D[Pip][2Nal]Q-NH2)	> 10 µM	–
C=CC(=O)N[C@@H](CCC(=O)O)C(=O)N1CCCC[C@H]1C(=O)N[C@@H](Cc1ccc2ccccc2c1)C(=O)N[C@@H](CCC(N)=O)C(N)=O [Compound 2b-1, (S)-4-Acrylamido-5-((S)-2-(((S)-1-(((S)-1,5-diamino-1,5-dioxopentan-2-yl)amino)-3-(naphthalen-2-yl)-1-oxopropan-2-yl)carbamoyl)piperidin-1-yl)-5-oxopentanoic acid] (Acryloyl-E[Pip][2Nal]Q-NH2)	> 10 µM	–
C=CC(=O)N[C@H](CCC(=O)O)C(=O)N1CCCC[C@H]1C(=O)N[C@@H](Cc1ccc2ccccc2c1)C(=O)N[C@@H](CCC(N)=O)C(N)=O [Compound 2b-2, (R)-4-Acrylamido-5-((S)-2-(((S)-1-(((S)-1,5-diamino-1,5-dioxopentan-2-yl)amino)-3-(naphthalen-2-yl)-1-oxopropan-2-yl)carbamoyl)piperidin-1-yl)-5-oxopentanoic acid] (Acryloyl-[dE][Pip][2Nal]Q-NH2)	> 10 µM	–
NC(=O)CC[C@H](NC(=O)[C@H](Cc1ccc2ccccc2c1)NC(=O)[C@@H]1CCCCN1C(=O)[C@@H](CCC(=O)O)NC(=O)CCl)C(N)=O [Compound 2b-4, (R)-4-(2-Chloroacetamido)-5-((S)-2-(((S)-1-(((S)-1,5-diamino-1,5-dioxopentan-2-yl)amino)-3-(naphthalen-2-yl)-1-oxopropan-2-yl)carbamoyl)piperidin-1-yl)-5-oxopentanoic acid] (ClAc-[dE][Pip][2Nal]Q-NH2)	> 10 µM	–
NC(=O)CC[C@H](NC(=O)[C@H](Cc1ccc2ccccc2c1)NC(=O)[C@@H]1COCCN1C(=O)[C@H](CCC(=O)O)NC(=O)CCl)C(N)=O [Compound 2b-5, (S)-4-(2-Chloroacetamido)-5-((S)-3-(((S)-1-(((S)-1,5-diamino-1,5-dioxopentan-2-yl)amino)-3-(naphthalen-2-yl)-1-oxopropan-2-yl)carbamoyl)morpholino)-5-oxopentanoic acid] (ClAc-E[Morpholine(3S-CO)][2Nal]Q-NH2)	> 10 µM	–
NC(=O)[C@H](Cc1c[nH]cn1)NC(=O)[C@H](Cc1ccc2ccccc2c1)NC(=O)[C@@H]1CCCCN1C(=O)[C@H](CCC(=O)O)NC(=O)CCl [Compound 2b-7, (S)-5-((S)-2-(((S)-1-(((S)-1-Amino-3-(1H-imidazol-4-yl)-1-oxopropan-2-yl)amino)-3-(naphthalen-2-yl)-1-oxopropan-2-yl)carbamoyl)piperidin-1-yl)-4-(2-chloroacetamido)-5-oxopentanoic acid] (ClAc-E[Pip][2Nal]H-NH2)	4.02 µM	–
NC(=O)CC[C@H](NC(=O)[C@H](Cc1csc2ccccc12)NC(=O)[C@@H]1CCCCN1C(=O)[C@H](CCC(=O)O)NC(=O)CCl)C(N)=O [Compound 2b-8, (S)-5-((S)-2-(((S)-3-(Benzo[6]thiophen-3-yl)-1-(((S)-1,5-diamino-1,5-dioxopentan-2-yl)amino)-1-oxopropan-2-yl)carbamoyl)piperidin-1-yl)-4-(2-chloroacetamido)-5-oxopentanoic acid] (ClAc-E[Pip][Bta]Q-NH2)	2.83 µM	–
C[C@H]1NC(=O)N[C@H]1CCCCCC(=O)NCCCC[C@H](NC(=O)[C@H](CCCNC(N)=O)NC(=O)[C@H](Cc1c[nH]c2ccccc12)NC(=O)[C@@H]1CCCCN1C(=O)[C@H](CCC(=O)O)NC(=O)CCl)C(N)=O [Compound 2c-2, (S)-5-((S)-2-(((S)-1-(((S)-1-(((S)-1-Amino-6-(6-((4S,5R)-5-methyl-2-oxoimidazolidin-4-yl)hexanamido)-1-oxohexan-2-yl)amino)-1-oxo-5-ureidopentan-2-yl)amino)-3-(1H-indol-3-yl)-1-oxopropan-2-yl)carbamoyl)piperidin-1-yl)-4-(2-chloroacetamido)-5-oxopentanoic acid] (ClAc-E[Pip]W[Cit]K(X2)-NH2)	–	0.03 µM

Now from value to compound, other results behind:

Ki (read-out: Ki, μM (FP Assay))	SMILES	Ki (Ki, μM (FP Assay))
0.19 µM	N=C(N)NCCC[C@H](NC(=O)[C@H](Cc1ccc(-c2ccccc2)cc1)NC(=O)[C@@H]1CCCCN1C(=O)[C@H](CCC(=O)O)NC(=O)CCl)C(N)=O [Compound 2b-9, (S)-5-((S)-2-(((S)-3-([1,1′-Biphenyl]-4-yl)-1-(((S)-1-amino-5-guanidino-1-oxopentan-2-yl)amino)-1-oxopropan-2-yl)carbamoyl)piperidin-1-yl)-4-(2-chloroacetamido)-5-oxopentanoic acid] (ClAc-E[Pip][Bip]R-NH2)	–
0.85 µM	N=C(N)NCCC[C@H](NC(=O)[C@@H](NC(=O)[C@@H]1CCCCN1C(=O)[C@H](CCC(=O)O)NC(=O)CCl)C(c1ccccc1)c1ccccc1)C(N)=O [Compound 2b-10, (S)-5-((S)-2-(((S)-1-(((S)-1-Amino-5-guanidino-1-oxopentan-2-yl)amino)-1-oxo-3,3-diphenylpropan-2-yl)carbamoyl)piperidin-1-yl)-4-(2-chloroacetamido)-5-oxopentanoic acid] (ClAc-E[Pip][Dip]R-NH2)	–
0.609 µM	N=C(N)NCCC[C@H](NC(=O)[C@H](Cc1c2ccccc2cc2ccccc12)NC(=O)[C@@H]1CCCCN1C(=O)[C@H](CCC(=O)O)NC(=O)CCl)C(N)=O [Compound 2b-11, (S)-5-((S)-2-(((S)-1-(((S)-1-Amino-5-guanidino-1-oxopentan-2-yl)amino)-3-(anthracen-9-yl)-1-oxopropan-2-yl)carbamoyl)piperidin-1-yl)-4-(2-chloroacetamido)-5-oxopentanoic acid] (ClAc-E[Pip][Ala(9-anthryl)]R-NH2)	–
0.23 µM	NC(=O)[C@H](CO)NC(=O)[C@H](Cc1ccc2ccccc2c1)NC(=O)[C@@H]1CCCCN1C(=O)[C@H](CCC(=O)O)NC(=O)CCl [Compound 2b-12, (S)-5-((S)-2-(((S)-1-(((S)-1-Amino-3-hydroxy-1-oxopropan-2-yl)amino)-3-(naphthalen-2-yl)-1-oxopropan-2-yl)carbamoyl)piperidin-1-yl)-4-(2-chloroacetamido)-5-oxopentanoic acid] (ClAc-E[Pip][2Nal]S-NH2)	–
0.19 µM	CC(C)(C)c1ccc(C[C@H](NC(=O)[C@@H]2CCCCN2C(=O)[C@H](CCC(=O)O)NC(=O)CCl)C(=O)N[C@@H](CCCNC(=N)N)C(N)=O)cc1 [Compound 2b-14, (S)-5-((S)-2-(((S)-1-(((S)-1-Amino-5-guanidino-1-oxopentan-2-yl)amino)-3-(4-(tert-butyl)phenyl)-1-oxopropan-2-yl)carbamoyl)piperidin-1-yl)-4-(2-chloroacetamido)-5-oxopentanoic acid] (ClAc-E[Pip][Phe(4-tBu)]R-NH2)	–
> 10 µM	N=C(N)NCCC[C@H](NC(=O)C[C@H](Cc1ccccc1)NC(=O)[C@@H]1CCCCN1C(=O)[C@H](CCC(=O)O)NC(=O)CCl)C(N)=O [Compound 2b-15, (S)-5-((S)-2-(((S)-4-(((S)-1-Amino-5-guanidino-1-oxopentan-2-yl)amino)-4-oxo-1-phenylbutan-2-yl)carbamoyl)piperidin-1-yl)-4-(2-chloroacetamido)-5-oxopentanoic acid] (ClAc-E[Pip][β3hF]R-NH2)	–
> 10 µM	C=CC(=O)N[C@@H](CCC(=O)O)C(=O)N1CCCC[C@H]1C(=O)N[C@@H](Cc1ccc2ccccc2c1)C(=O)N[C@@H](CCCNC(=N)N)C(N)=O [Compound 2b-16, (S)-4-Acrylamido-5-((S)-2-(((S)-1-(((S)-1-amino-5-guanidino-1-oxopentan-2-yl)amino)-3-(naphthalen-2-yl)-1-oxopropan-2-yl)carbamoyl)piperidin-1-yl)-5-oxopentanoic acid] (Acryloyl-E[Pip][2Nal]R-NH2)	–
0.04 µM	C[C@H](NC(=O)[C@H](C)NC(=O)[C@H](CCCNC(N)=O)NC(=O)[C@H](Cc1c[nH]c2ccccc12)NC(=O)[C@@H]1CCCCN1C(=O)[C@H](CCC(=O)O)NC(=O)CCl)C(=O)N[C@@H](CCCCNC(=O)CCCCC[C@@H]1NC(=O)N[C@@H]1C)C(N)=O [Compound 2c-1, (S)-5-((S)-2-(((2S,5S,8S,11S)-14-Carbamoyl-1-(1H-indol-3-yl)-8,11-dimethyl-25-((4S,5R)-5-methyl-2-oxoimidazolidin-4-yl)-3,6,9,12,20-pentaoxo-5-(3-ureidopropyl)-4,7,10,13,19-pentaazapentacosan-2-yl)carbamoyl)piperidin-1-yl)-4-(2-chloroacetamido)-5-oxopentanoic acid] (ClAc-E[Pip]W[Cit]AAK(X2)-NH2)	–
4.17 µM	COC(=O)CC[C@H](NC(=O)C1CO1)C(=O)N1CCCC[C@H]1C(=O)N[C@@H](Cc1c[nH]c2ccccc12)C(=O)N[C@@H](CCCNC(N)=O)C(N)=O (stereo partly drawn) [Compound 3, Methyl (4S)-5-((S)-2-(((S)-1-(((S)-1-amino-1-oxo-5-ureidopentan-2-yl)amino)-3-(1H-indol-3-yl)-1-oxopropan-2-yl)carbamoyl)piperidin-1-yl)-4-(oxirane-2-carboxamido)-5-oxopentanoate] (X1-E(OMe)[Pip]W[Cit]-NH2)	–
> 10 µM	NC(=O)NCCC[C@H](NC(=O)[C@H](Cc1ccc2ccccc2c1)NC(=O)[C@@H]1CCCCN1C(=O)[C@H](CCC(=O)O)N1C(=O)C=CC1=O)C(N)=O [Compound 5, (S)-5-((S)-2-(((S)-1-(((S)-1-Amino-1-oxo-5-ureidopentan-2-yl)amino)-3-(naphthalen-2-yl)-1-oxopropan-2-yl)carbamoyl)piperidin-1-yl)-4-(2,5-dioxo-2,5-dihydro-1H-pyrrol-1-yl)-5-oxopentanoic acid]	–
